From US6716613B1, “Metalloprotease having aggrecanase activity” (Yamanouchi Pharmaceutical Co., Ltd., priority 1999, dated 2004)

System: rabbit knee joint cartilage primary culture cells
Assay: Proteoglycan degradation/release in rabbit knee joint cartilage primary culture cells (35S label)
Format: cell-based
Details: compound added just before stimulation with 10 μM of all-trans retinoic acid; for IC50: Oryctolagus cuniculus, read-out: proteoglycan degradation inhibition action (IC50)
Experimental: After killing a rabbit (Japanese white species, male, 1.0 to 1.5 kg) under excess anesthesia, a knee joint was excised and the cartilage layer on the joint surface was removed and finely cut using a surgical knife. The cut pieces were treated with trypsin-EDTA (0.25%-1 mM; mfd. by GIBCO-BRL) at 37° C. for 1 hour and then centrifuged at 1,500 rpm for 5 minutes, and the resulting precipitate was washed with DMEM. This was treated with collagenase A (0.15%; Boehringer-Mannheim)/DMEM at 37° C. for 3 to 4 hours, and then a nylon mesh filter (100 μm, mfd. by Falcon)-passed fraction was centrifuged at 1,500 rpm for 5 minutes to effect precipitation of cartilage cells. The cells were thoroughly washed with DMEM/10% FBS medium, suspended in DMEM/10% FBS medium to a density of 2×10^5 cells/ml and then inoculated in 200 μl/well portions into an I type collagen-coated 96 well plate (mfd. by Asahi Technoglass). Three days thereafter, the medium was changed to 200 μof DMEM/10% FBS medium containing 50 μg/ml of ascorbic acid (ascorbic acid medium hereinafter), and the culturing was continued for 3 days. When an I type collagen-coated 6 well plate (Asahi Technoglass) was used, the cell suspension was inoculated in 6 ml/well portions and cultured by carrying out the same medium exchange. These cells were used in the following test.
The rabbit knee joint cartilage primary culture cells of 96 well plate described in Example 11-1 were cultured for 2 days using 200 μl of the ascorbic acid medium supplemented with 10 μCi/ml in final concentration of Na2^35SO4 and labeled therewith, washed 3 times with 200 μl of the ascorbic acid medium and then cultured for 1 day using 200 μl of the ascorbic acid medium. After stimulation with IL-1β or all-trans retinoic acid and subsequent 0, 24, and 48 hours of culturing, the culture supernatants were recovered in 20 μl portions, and the radioactivity was measured using Top Count (mfd. by Packard).
Each of the compounds A, B, C and D selected by the screening system of Example 10-2 was added to the proteoglycan degradation system of rabbit knee joint cartilage primary culture cells just before the stimulation with 10 μM of all-trans retinoic acid, and their proteoglycan degradation inhibitory activities were examined.

Structure (SMILES) | inhibition of proteoglycan degradation (in words, FIG. 8) | IC50
CNC(=O)C(Cc1ccc(OC)cc1)NC(=O)C(CC(C)C)C(CS)C(=O)NO (stereo not drawn) [compound A, N-^α-[2-(1-hydroxycarbamoyl-2-sulfanylethyl)-4-methylpentanoyl]-N,O-dimethyltyrosineamide] | inhibition of proteoglycan degradation in a concentration-dependent manner | –
CNC(=O)[C@H](Cc1ccc(OC)cc1)NC(=O)C(CC(C)C)C(CSc1ccccc1)C(=O)NO (stereo partly drawn) [compound C, N^α-[2-(1-hydroxycarbamoyl-2-phenylsulfanylethyl)-4-methylpentanoyl]-N,O-dimethyltyrosineamide] | – | 6.3 µM
CNC(=O)[C@H](Cc1ccc(OC)cc1)NC(=O)C(CC(C)C)C(CSC)C(=O)NO (stereo partly drawn) [compound D, N^α-[2-(1-hydroxycarbamoyl-2-methylsulfanylethyl)-4-methylpentanoyl]-N,O-dimethyltyrosineamide] | – | 4.1 µM
